# How the values were obtained:
# Hepatitis C virus [1] = experiment: Antiviral activity against Hepatitis C virus subtype 1b harboring protease D168V mutant by transient replicon assay; type: functional, organism-based, Hepacivirus hominis; settings: genotype 1b
# Hepatitis C virus [2] = experiment: Antiviral activity against Hepatitis C virus subtype 1b harboring protease A156S mutant by transient replicon assay; type: functional, organism-based, Hepacivirus hominis; settings: genotype 1b
# Hepatitis C virus [3] = experiment: Antiviral activity against Hepatitis C virus subtype 1a by stable replicon assay; type: functional, organism-based, Hepacivirus hominis
# Hepatitis C virus [4] = experiment: Antiviral activity against Hepatitis C virus subtype 1b harboring protease D168A mutant by transient replicon assay; type: functional, organism-based, Hepacivirus hominis; settings: genotype 1b
# Hepatitis C virus [5] = experiment: Antiviral activity against Hepatitis C virus subtype 1b harboring protease R155K mutant by transient replicon assay; type: functional, organism-based, Hepacivirus hominis; settings: genotype 1b
# [6] = Inhibition of HCV 1a protease 1a domain; parameters: species or system Hepacivirus hominis
# Hepatitis C virus [7] = experiment: Antiviral activity against Hepatitis C virus subtype 1b harboring protease A156V mutant by transient replicon assay; type: functional, organism-based, Hepacivirus hominis; settings: genotype 1b
# Hepatitis C virus [8] = experiment: Resistance index, ratio of EC50 for Hepatitis C virus subtype 1b harboring protease D168A mutant to EC50 for wild type Hepatitis C virus subtype 1b; type: functional, Hepacivirus hominis, genotype 1b
# Hepatitis C virus [9] = experiment: Antiviral activity against wild type Hepatitis C virus subtype 1b by transient replicon assay; type: functional, organism-based, Hepacivirus hominis; settings: genotype 1b
# Hepatitis C virus [10] = experiment: Resistance index, ratio of EC50 for Hepatitis C virus subtype 1b harboring protease R155K mutant to EC50 for wild type Hepatitis C virus subtype 1b; type: functional, Hepacivirus hominis, genotype 1b
# Hepatitis C virus [11] = experiment: Resistance index, ratio of EC50 for Hepatitis C virus subtype 1b harboring protease D168V mutant to EC50 for wild type Hepatitis C virus subtype 1b; type: functional, Hepacivirus hominis, genotype 1b
# Hepatitis C virus [12] = experiment: Antiviral activity against Hepatitis C virus subtype 1b harboring protease A156T mutant by transient replicon assay; type: functional, organism-based, Hepacivirus hominis; settings: genotype 1b
# Hepatitis C virus [13] = experiment: Antiviral activity against Hepatitis C virus subtype 1b by stable replicon assay; type: functional, organism-based, Hepacivirus hominis; settings: genotype 1b
# Rattus norvegicus [14] = experiment: Dose normalized AUC in rat at 5 mg/kg, po; type: ADME, organism-based; parameters: dose 5 mg/kg, route oral; settings: in vivo
# Rattus norvegicus [15] = experiment: Hepatic clearance in rat at 1 mg/kg, iv; type: ADME, organism-based, Liver; parameters: dose 1 mg/kg, route intravenous; settings: in vivo
# [16] = Oral bioavailability in rat at 5 mg/kg; type: ADME, organism-based; settings: in vivo
# [17] = AUC in rat at 1 mg/kg, iv; type: ADME, organism-based, Plasma; parameters: dose 1 mg/kg, route intravenous; settings: plasma
# [18] = Terminal half life in rat at 5 mg/kg, po; type: ADME, organism-based; parameters: dose 5 mg/kg, route oral; settings: in vivo, read-out: beta t1/2 (converted)
# [19] = Maximum drug absorption in rat at 5 mg/kg, po; type: ADME, organism-based; parameters: dose 5 mg/kg, route oral; settings: in vivo, read-out: Drug absorption
# [20] = AUC in rat at 5 mg/kg, po; type: ADME, organism-based, Plasma; parameters: dose 5 mg/kg, route oral; settings: plasma
SMILES,EC50 (Hepatitis C virus [1]) [nM],EC50 (Hepatitis C virus [2]) [nM],EC50 (Hepatitis C virus [3]) [nM],EC50 (Hepatitis C virus [4]) [nM],EC50 (Hepatitis C virus [5]) [nM],IC50 [6] [nM],EC50 (Hepatitis C virus [7]) [nM],Ratio EC50 (Hepatitis C virus [8]),EC50 (Hepatitis C virus [9]) [nM],Ratio EC50 (Hepatitis C virus [10]),Ratio EC50 (Hepatitis C virus [11]),EC50 (Hepatitis C virus [12]) [nM],EC50 (Hepatitis C virus [13]) [nM],AUC/dose (Rattus norvegicus [14]) [kg·µg·h/mL/mg],CLH (Rattus norvegicus [15]) [mL/min/kg],bioavailability [16] [%],AUC [17] [ng·h/mL],half-life [18] [h],Fa [19] [%],AUC [20] [ng·h/mL]
CCN(C)C(=O)N[C@H]1CCCCC/C=C\[C@@H]2C[C@@]2(C(=O)NS(=O)(=O)C2CC2)NC(=O)[C@@H]2C[C@@H](Oc3cc(-c4nc(C(C)C)cs4)nc4c(C)c(OC)ccc34)CN2C1=O,147,0.5,0.7,60,25,6,11,<1000,0.2,<1000,<1000,3,0.4,,,,,,,
COc1ccc2c(O[C@@H]3C[C@H]4C(=O)N[C@]5(C(=O)NS(=O)(=O)C6CC6)C[C@H]5/C=C\CCCCC[C@H](NC(=O)N5CCC5)C(=O)N4C3)cc(-c3nc(C(C)C)cs3)nc2c1C,97,0.2,0.8,60,20,4,8,<1000,0.1,<1000,<1000,2,0.4,0.008,160.3,4.2,107,2.26,7.6,40.5
COc1ccc2c(O[C@@H]3C[C@H]4C(=O)N[C@]5(C(=O)NS(=O)(=O)C6CC6)C[C@H]5/C=C\CCCCC[C@H](NC(=O)N5CC(F)(F)C5)C(=O)N4C3)cc(-c3nc(C(C)C)cs3)nc2c1C,58,,0.8,15,14,2,6,<1000,0.1,<1000,<1000,1,0.5,0.014,91.03,4,203,0.806,6.8,69
COc1ccc2c(O[C@@H]3C[C@H]4C(=O)N[C@]5(C(=O)NS(=O)(=O)C6CC6)C[C@H]5/C=C\CCCCC[C@H](NC(=O)N5CC6CCCC6C5)C(=O)N4C3)cc(-c3nc(C(C)C)cs3)nc2c1C (some centres not stated),83,0.1,0.3,23,11,5,15,,0.01,,,1,0.3,,,,,,,
COc1ccc2c(O[C@@H]3C[C@H]4C(=O)N[C@]5(C(=O)NS(=O)(=O)C6CC6)C[C@H]5/C=C\CCCCC[C@H](NC(=O)N5C[C@@H](C)O[C@@H](C)C5)C(=O)N4C3)cc(-c3nc(C(C)C)cs3)nc2c1C,2090,1,10.6,423,233,2,69,,0.7,,,23,1.2,,,,,,,
COc1ccc2c(O[C@@H]3C[C@H]4C(=O)N[C@]5(C(=O)NS(=O)(=O)C6CC6)C[C@H]5/C=C\CCCCC[C@H](NC(=O)N5CCS(=O)(=O)CC5)C(=O)N4C3)cc(-c3nc(C(C)C)cs3)nc2c1C,1420,0.3,2.3,372,115,2,38,,0.4,,,5,0.5,,,,,,,
COc1ccc2c(O[C@@H]3C[C@H]4C(=O)N[C@]5(C(=O)NS(=O)(=O)C6CC6)C[C@H]5/C=C\CCCCC[C@H](NC(=O)N(C)C(C)C)C(=O)N4C3)cc(-c3nc(C4CC4)cs3)nc2c1C,37,0.05,0.3,17,5,0.8,5,<1000,0.04,<1000,<1000,2,0.4,,,,,,,
CCN(C(=O)N[C@H]1CCCCC/C=C\[C@@H]2C[C@@]2(C(=O)NS(=O)(=O)C2CC2)NC(=O)[C@@H]2C[C@@H](Oc3cc(-c4nc(C5CC5)cs4)nc4c(C)c(OC)ccc34)CN2C1=O)C(C)C,151,0.7,0.4,50,16,1,24,<1000,0.2,<1000,<1000,8,0.4,,,,,,,
COc1ccc2c(O[C@@H]3C[C@H]4C(=O)N[C@]5(C(=O)NS(=O)(=O)C6CC6)C[C@H]5/C=C\CCCCC[C@H](NC(=O)N(C)C(C)(C)C)C(=O)N4C3)cc(-c3nc(C4CC4)cs3)nc2c1C,84,0.4,1,71,28,,9,<1000,0.2,<1000,<1000,7,1,,,,,,,
COc1ccc2c(O[C@@H]3C[C@H]4C(=O)N[C@]5(C(=O)NS(=O)(=O)C6CC6)C[C@H]5/C=C\CCCCC[C@H](NC(=O)N(C(C)C)C(C)C)C(=O)N4C3)cc(-c3nc(C4CC4)cs3)nc2c1C,105,0.6,0.7,64,46,2,43,<1000,0.2,<1000,<1000,11,0.9,,,,,,,
COc1ccc2c(O[C@@H]3C[C@H]4C(=O)N[C@@]5(C(=O)NS(=O)(=O)C6CC6)C[C@@H]5/C=C/CCCCN(C)C(=O)[C@@H]4C3)cc(-c3nc(C(C)C)cs3)nc2c1C,140,0.3,2,149,56,10,344,0.3,1,0.3,0.3,86,1,,,,,,,
COc1ccc2c(O[C@@H]3C[C@H]4C(=O)N[C@]5(C(=O)O)C[C@H]5/C=C\CCCCC[C@H](NC(=O)OC5CCCC5)C(=O)N4C3)cc(-c3csc(NC(C)C)n3)nc2c1 [CILUPREVIR],438,3,2.2,205,241,2,627,,1,,,604,0.5,,,,,,,
CC(C)(C)OC(=O)N[C@H]1CCCCC/C=C\[C@@H]2C[C@@]2(C(=O)NS(=O)(=O)C2CC2)NC(=O)[C@@H]2C[C@@H](OC(=O)N3Cc4cccc(F)c4C3)CN2C1=O [DANOPREVIR],26,2,2,39,82,0.7,8,10,0.2,10,10,10,1.5,,,,,,,
CCC[C@H](NC(=O)[C@@H]1[C@H]2CCC[C@H]2CN1C(=O)[C@@H](NC(=O)[C@@H](NC(=O)c1cnccn1)C1CCCCC1)C(C)(C)C)C(=O)C(=O)NC1CC1 [TELAPREVIR],207,883,540,638,1780,500,1960,6,34,6,6,1140,372,,,,,,,

# — ChEMBL document CHEMBL2034968, “Discovery of novel urea-based hepatitis C protease inhibitors with high potency against protease-inhibitor-resistant mutants” (J Med Chem, 2012)
